Measurements published in PubChem BioAssay (NCI).
“And” between values parts separate entries of the source, which are not always exact repeats. Equal values may be shown once.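 The compound was tested at five concentrations on cells cultured in 96-well plates, with a 48-hour exposure period. GI50 = concentration required for 50% inhibition of growth. TGI denotes the concentration required for complete inhibition of growth.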

Tests used:
Assay in all cases: NCI-60 cell line screen, 48 h
CCRF-CEM leukemia = test system: CCRF-CEM leukemia
EKVX NSCLC = test system: EKVX NSCLC
K-562 leukemia = test system: K-562 leukemia
MALME-3M melanoma = test system: MALME-3M melanoma
RPMI-8226 leukemia = test system: RPMI-8226 leukemia
SNB-75 CNS = test system: SNB-75 CNS
NCI/ADR-RES ovarian = test system: NCI/ADR-RES ovarian
PC-3 prostate = test system: PC-3 prostate
MDA-MB-231 breast = test system: MDA-MB-231 breast
T-47D breast = test system: T-47D breast

| Compound | TGI (CCRF-CEM leukemia) | TGI (EKVX NSCLC) | TGI (K-562 leukemia) | TGI (MALME-3M melanoma) [µM] | TGI (RPMI-8226 leukemia) | TGI (SNB-75 CNS) [µM] | GI50 (CCRF-CEM leukemia) | GI50 (EKVX NSCLC) | GI50 (K-562 leukemia) | GI50 (NCI/ADR-RES ovarian) | TGI (NCI/ADR-RES ovarian) | GI50 (PC-3 prostate) [µM] | TGI (PC-3 prostate) | GI50 (RPMI-8226 leukemia) | TGI (MDA-MB-231 breast) [µM] | TGI (T-47D breast) [µM] | GI50 (MALME-3M melanoma) [µM] | GI50 (MDA-MB-231 breast) [µM] | GI50 (T-47D breast) [µM] | GI50 (SNB-75 CNS) [µM] |
| --- | --- | --- | --- | --- | --- | --- | --- | --- | --- | --- | --- | --- | --- | --- | --- | --- | --- | --- | --- | --- |
| C[C@H]1CC[P+](Cc2ccccc2)(c2ccccc2)C1 (stereo partly specified) | > 100 µM | > 100 µM | > 100 µM | > 100 | > 100 µM | > 100 |  |  |  |  |  |  |  |  |  |  |  |  |  |  |
| COC1=C(N)C(=O)c2nc(-c3nc(C(=O)O)c(C)c(-c4ccc(OC)c(OC)c4O)c3N)ccc2C1=O | 0.0398 µM and 0.0286 µM | 0.0349 µM and 0.0896 µM | 0.277 µM and 0.102 µM and 0.0281 µM |  | 0.00647 µM and 0.0298 µM and 0.0225 µM |  | 20.6 nM and 3.86 nM | 0.00938 µM and 0.0215 µM | 23.7 nM and 11.2 nM and < 10 nM | 0.00121 µM and 0.00809 µM | 0.0151 µM and 0.094 µM and 0.0169 µM | 0.0298 | 0.203 µM and 0.0292 µM and 0.0228 µM | 0.00215 µM and 0.00924 µM and < 0.01 µM |  |  |  |  |  |  |
| COc1ccc(-c2cc(=O)c3c(O)c(OC)c(OC)c(OC)c3o2)cc1OC | > 100 µM | > 100 µM | > 100 µM | > 100 |  |  |  |  |  |  | > 100 µM |  | > 100 µM |  | > 100 | > 100 |  |  |  |  |
| COC(=O)C(=O)Cc1nc2ccccc2s1 | > 100 µM | > 100 µM | > 100 µM | > 100 |  | > 100 |  |  |  |  |  |  |  |  |  |  |  |  |  |  |
| O=C1C(c2ccccc2)=C(c2ccccc2)C(c2ccc(Cc3ccc(C4=C(c5ccccc5)C(=O)C(c5ccccc5)=C4c4ccccc4)cc3)cc2)=C1c1ccccc1 | > 100 µM | > 100 µM | > 100 µM | > 100 | > 100 µM | > 100 |  |  |  |  |  |  |  |  |  |  |  |  |  |  |
| Cc1nc(N)nc(N)c1CCCCc1ccc(N)cc1 | 22.5 µM | 27.3 µM | 16.4 µM | 18.2 | 26.5 µM | 29.3 |  |  |  |  |  |  |  |  |  |  |  |  |  |  |
| CCOC(=O)CSc1cc(Cl)c(C)cc1S(=O)(=O)/N=C(/N=C/c1ccc([N+](=O)[O-])s1)NNC | > 100 µM | 49.2 µM |  | 55.3 | > 100 µM |  | 30300 nM | 19.7 µM |  | 12.7 µM | 30.7 µM | 25 | > 100 µM | 36.7 µM | 29.7 | 40.1 | 19.9 | 11.7 | 12.5 |  |
| Nc1ccc2n[se]nc2c1 | > 100 µM | > 100 µM | > 100 µM | > 100 | > 100 µM | > 100 |  |  |  |  |  |  |  |  |  |  |  |  |  |  |
| CSC1=NC(=Nc2c(C)cccc2C)C2(CCC(C(C)(C)C)CC2)N1c1ccc(Cl)cc1 (stereo unspecified) |  |  | > 100 µM | > 100 | > 100 µM | > 100 |  |  | 4760 nM | 77.7 µM | > 100 µM | 6.05 | > 100 µM | 6.35 µM | > 100 | > 100 | 42.6 | > 100 | 20.8 | > 100 |
| CC(C)(CN1C(=O)C(Cl)=C(Cl)C1=O)CN1C(=O)C(Cl)=C(Cl)C1=O |  | 51.5 µM | 7.1 µM | 16.7 | 4.96 µM | 50.7 |  |  |  |  |  |  |  |  |  |  |  |  |  |  |
| Nc1nncc2c1c(Br)cn2C1OC(CO)C(O)C1O (stereo unspecified) | > 100 µM | > 100 µM | > 100 µM | > 100 | > 100 µM | > 100 |  |  |  |  |  |  |  |  |  |  |  |  |  |  |
| O=S1(=O)N2CN3CN(C2)CN1C3 | > 31.6 µM and 110 µM | 823 µM | > 31.6 µM and 169 µM | 324 | 56.6 µM and 124 µM | 69.2 |  |  |  |  |  |  |  | 33.7 µM |  |  |  |  |  |  |
| CCOC(=O)C(C)(NC(=O)c1ccc(NCc2ccc3nc(NC(=O)c4ccccc4)nc(NC(=O)c4ccccc4)c3c2)cc1)C(=O)OCC |  | 39.5 µM |  | 38 | > 100 µM | 7 |  |  |  |  |  |  |  |  |  |  |  |  |  |  |
| COC1C2C[C@@H](O)CCC2C(C(=O)OCCl)C[C@H]1O (stereo partly specified) | > 100 µM |  | > 100 µM | > 100 | > 100 µM | > 100 |  |  |  |  |  |  |  |  |  |  |  |  |  |  |
| O=C1c2ccccc2C(=O)c2cc3c(cc21)CS(=O)C3 | > 100 µM | > 100 µM | > 100 µM | > 100 | > 100 µM | > 100 |  |  |  |  |  |  |  |  |  |  |  |  |  |  |
| CC(=O)Nc1ccc(C(=O)CCl)cc1 | 7.51 µM |  | 5.88 µM |  | 10 µM | 16 | 2410 nM |  | 2480 nM | 14.7 µM | 43.5 µM | 10 | 22.3 µM | 2.95 µM | 14.8 | 7.33 |  | 4.02 | 2.68 | 3.46 |
| COc1cc(/C=C/C(=O)c2cccc(-n3cc(-c4cc(OC)c(OC)c(OC)c4)[nH]c3=O)c2)cc(OC)c1OC | > 100 µM | > 100 µM | > 100 µM | 3.7 | 0.733 µM | 21 | 275 nM | 9.48 µM | 591 nM |  |  | 2.63 | 18.6 µM | 0.238 µM | 26.3 | 22.8 | 1.8 | 4.19 | 3.08 | 5.13 |
| O=[N+]([O-])c1ccc(C2=Nc3ccccc3S(=O)C(c3ccccc3)C2)cc1 (stereo unspecified) | 36.9 µM | 45.1 µM | 34.5 µM | > 100 | 29.6 µM | 53.3 |  |  |  |  |  |  |  |  |  |  |  |  |  |  |
| NC(N)=N/N=C/c1c(-c2ccsc2)nc2n1CCS2 | 54.6 µM | > 100 µM | 65.8 µM |  | > 100 µM |  | 19500 nM | 58 µM | 22200 nM | > 100 µM | > 100 µM | 17.5 | 39.2 µM | 31.9 µM | 82.1 | 66.3 |  | 28.1 | 30 |  |
| CC(=O)C1CCN(c2ccccc2)C1 (stereo unspecified) | > 100 µM | > 100 µM | > 100 µM |  |  | > 100 |  |  |  |  |  |  |  |  |  |  |  |  |  |  |
| O=C(O/N=C1\CCCC\C1=C/c1ccccc1)c1ccc([N+](=O)[O-])cc1 | > 100 µM | > 100 µM | > 100 µM | > 100 | > 100 µM | > 100 |  |  |  |  |  |  |  |  |  |  |  |  |  |  |
| COc1cc([N+](=O)[O-])c(OC)cc1-c1nc2sc(C)c(C)n2c1/C(N)=N/C(=N)N | > 100 µM | > 100 µM |  |  | > 100 µM | > 100 | 6010 nM | > 100 µM |  | > 100 µM | > 100 µM | > 100 | > 100 µM | 59.3 µM |  |  |  |  |  | > 100 |
| CN=c1ss/c(=N\C(=S)N(C)C)n1C | > 100 µM | > 100 µM | > 100 µM | > 100 | > 100 µM | > 100 |  |  |  |  |  |  |  |  |  |  |  |  |  |  |
| O=C(c1ccc(O)cc1O)C1C(c2ccc(O)cc2)OC(c2ccc(O)cc2)C1C(=O)c1ccc(O)cc1O (stereo unspecified) |  | 60 µM |  | 31.2 |  | 42.1 |  |  |  |  |  |  |  |  |  |  |  |  |  |  |
